Each molecule was assayed against T1, human M4 muscarinic acetylcholine receptor (Homo sapiens, UniProt P08173) (assay: human FLIPR-based M4 PAM assay (CHO-K1 cells with human M4 receptor and Gαqi5, calcium dye fluorescence, EC20 acetylcholine)). Conditions: inflection point (IP) of the dose response curve, human M4 receptor/Gαqi5, acetylcholine at 20% of maximum response, read-out: M4PAM Hu IP.
T1 construct: expressed in transfected cells
T1 sequence (P08173 1-479): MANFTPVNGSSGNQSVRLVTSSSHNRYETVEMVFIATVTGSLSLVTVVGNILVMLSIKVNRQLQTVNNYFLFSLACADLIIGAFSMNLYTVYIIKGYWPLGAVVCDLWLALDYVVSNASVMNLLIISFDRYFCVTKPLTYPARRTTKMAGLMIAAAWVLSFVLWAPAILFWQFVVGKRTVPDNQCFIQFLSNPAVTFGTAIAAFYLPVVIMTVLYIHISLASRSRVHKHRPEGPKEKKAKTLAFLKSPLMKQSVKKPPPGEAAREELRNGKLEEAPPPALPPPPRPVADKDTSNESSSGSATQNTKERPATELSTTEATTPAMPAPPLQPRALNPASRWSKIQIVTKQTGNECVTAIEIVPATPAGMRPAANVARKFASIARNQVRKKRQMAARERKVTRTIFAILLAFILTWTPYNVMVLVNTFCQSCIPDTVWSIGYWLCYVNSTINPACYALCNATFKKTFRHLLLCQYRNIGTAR
Format: cell-based
Description: (§1) In a typical experiment the M4 muscarinic acetylcholine receptor modulating activity of the compounds of the present invention was determined in accordance with the following experimental method. CHO-K1 cells stably transfected with human M4 receptor and chimeric G-protein Gαqi5 (Coward P, et al., Analytical Biochemistry, 270:242-248 (1999)) are thawed from liquid N2 storage, resuspended in growth medium, plated in black, clear bottom 384 well plates, and incubated 16-20 hours at 37° C., 5% CO2. On the day of assay, growth medium is removed, the cells are washed 2 times with wash buffer, and cells are incubated in dye loading buffer at 37° C., 5% CO2 for ˜1 hour. Following dye loading the cell plates are placed in a FLIPR Tetra instrument and while monitoring dye fluorescence (excitation […]), 10 uL of test substance at increasing concentrations is added, and fluorescence values are recorded for 4 min. Next, 10 uL of acetylcholine is added (final concentration calculated so as to achieve 20% of the maximum acetycholine response), and the fluorescence reading is continued for 3.5 min. In some cases, a third addition of acetylcholine (final concentration calculated to achieve 70% of the maximal acetylcholine response) is performed. The resulting dose response curves are fit to a 4 parameter logistic equation and the final result is determined as the inflection point (IP) of the curve
as §1, with “CHO-K1” for “In a typical experiment the M4 muscarinic acetylcholine receptor modulating activity of the compounds of the present invention was determined in accordance with the following experimental method. CHO-K1”, “Gαqi5” for “Gαqi5 (Coward P, et al., Analytical Biochemistry, 270:242-248 (1999))”, “performed.” for “performed. The resulting dose response curves are fit to a 4 parameter logistic equation and the final result is determined as the inflection point (IP) of the curve”

EC50 [nM]	Structure (SMILES)
111	COc1cc2ccc(-c3nc(C)ccc3-c3cnn(CC4(C)CCCO4)c3)cc2nn1 (stereo not shown) [Example 23, 3-methoxy-7-(6-methyl-3-{1-[(2-methyltetrahydrofuran-2-yl)methyl]-1H-pyrazol-4-yl}pyridin-2-yl)cinnoline]
25	CC(C)(C)Cn1cc(-c2ccc(C#N)nc2-c2ccc3cccnc3c2)cn1 [Example 37, 5-[1-(2,2-dimethylpropyl)-1H-pyrazol-4-yl]-6-quinolin-7-ylpyridine-2-carbonitrile]
87	CC1(Cn2cc(-c3ccc(C#N)nc3-c3ccc4cccnc4c3)cn2)CC1 [Example 97, 5-{1-[(1-methylcyclopropyl)methyl]-1H-pyrazol-4-yl}-6-quinolin-7-ylpyridine-2-carbonitrile]
84	CC(C)CCn1cc(-c2ccc(C(F)(F)F)nc2-c2ccc3cccnc3c2)cn1 [Example 49, 7-{3-[1-(3-methylbutyl)-1H-pyrazol-4-yl]-6-(trifluoromethyl)pyridin-2-yl}quinoline]
199	COc1cc2ccc(-c3nc(C)ccc3-c3cnn(CCC(C)(C)C#N)c3)cc2nn1 [Example 85, 4-{4-[2-(3-methoxycinnolin-7-yl)-6-methylpyridin-3-yl]-1H-pyrazol-1-yl}-2,2-dimethylbutanenitrile]
52	CC1(Cn2cc(-c3cccnc3-c3ccc4cccnc4c3)cn2)CCCCC1 [Example 94, 7-(3-{1-[(1-methylcyclohexyl)methyl]-1H-pyrazol-4-yl}pyridin-2-yl)quinoline]
131	COc1cc2ccc(-c3ncc(Cl)cc3-c3cnn(CCC(C)C)c3)cc2nn1 [Example 53, 7-{5-chloro-3-[1-(3-methylbutyl)-1H-pyrazol-4-yl]pyridin-2-yl}-3-methoxycinnoline]
180	COc1cc2ccc(-c3nc(C)ccc3-c3cnn(CC4CCOC4)c3)cc2nn1 (stereo not shown) [Example 82, 3-methoxy-7-{6-methyl-3-[1-(tetrahydrofuran-3-ylmethyl)-1H-pyrazol-4-yl]pyridin-2-yl}cinnoline]
100	Cc1ccc(-c2cnn(CC3CC3(C)C)c2)c(-c2ccc3cccnc3c2)n1 (stereo not shown) [Example 101, 7-(3-{1-[(2,2-dimethylcyclopropyl)methyl]-1H-pyrazol-4-yl}-6-methylpyridin-2-yl)quinoline]
81	COc1cc2ccc(-c3nc(C)ccc3-c3cnn(CC4CC4(C)C)c3)cc2nn1 (stereo not shown) [Example 100, 7-(3-{1-[(2,2-dimethylcyclopropyl)methyl]-1H-pyrazol-4-yl}-6-methylpyridin-2-yl)-3-methoxycinnoline]
80	Cc1ccc(-c2cnn(CC34CC5CC(CC(C5)C3)C4)c2)c(-c2ccc3cccnc3c2)n1 [Example 12, 7-(3-(1-(((3r,5r,7r)-adamantan-1-yl)methyl)-1H-pyrazol-4-yl)-6-methylpyridin-2-yl)quinoline]
39	N#Cc1ccc(-c2cnn(CC3(F)CCC3)c2)c(-c2ccc3cccnc3c2)n1 [Example 116, 5-{1-[(1-fluorocyclobutyl)methyl]-1H-pyrazol-4-yl}-6-quinolin-7-ylpyridine-2-carbonitrile]
181	CC(C)C(=O)Cn1cc(-c2ccc(C#N)nc2-c2ccc3cccnc3c2)cn1 [Example 60, 5-[1-(3-methyl-2-oxobutyl)-1H-pyrazol-4-yl]-6-quinolin-7-ylpyridine-2-carbonitrile]
222	Cc1cnc(-c2ccc3cccnc3c2)c(-c2cnn(CCC(C)C)c2)c1 [Example 71, 7-{5-methyl-3-[1-(3-methylbutyl)-1H-pyrazol-4-yl]pyridin-2-yl}quinoline]
88	N#Cc1nc(-c2ccc3cccnc3c2)c(-c2cnn(CC3(C(F)(F)F)CC3)c2)cc1F [Example 47, 3-fluoro-6-quinolin-7-yl-5-(1-{[1-(trifluoromethyl)cyclopropyl]methyl}-1H-pyrazol-4-yl)pyridine-2-carbonitrile]
110	N#Cc1ccc(-c2cnn(CC3(F)CC3)c2)c(-c2ccc3cccnc3c2)n1 [Example 111, 5-{1-[(1-fluorocyclopropyl)methyl]-1H-pyrazol-4-yl}-6-quinolin-7-ylpyridine-2-carbonitrile]

EC50 [nM]	Structure (SMILES)
44	COc1cc2ccc(-c3nc(C#N)ccc3-c3cnn(CC4(C(F)F)CC4)c3)cc2nn1 [Example 28, 5-(1-{[1-(difluoromethyl)cyclopropyl]methyl}-1H-pyrazol-4-yl)-6-(3-methoxycinnolin-7-yl)pyridine-2-carbonitrile]
91	Cc1ccc(-c2cnn(Cc3ccccc3)c2)c(-c2ccc3cccnc3c2)n1 [Example 4, 7-[3-(1-benzyl-1H-pyrazol-4-yl)-6-methylpyridin-2-yl]quinoline]
57	COc1cc2ccc(-c3nc(C)ccc3-c3cnn(CCC(C)(C)F)c3)cc2nn1 [Example 3, 7-{3-[1-(3-fluoro-3-methylbutyl)-1H-pyrazol-4-yl]-6-methylpyridin-2-yl}-3-methoxycinnoline]
22	COc1cc2ccc(-c3ncccc3-c3cnn(CC4(C)CCCCC4)c3)cc2nn1 [Example 1, 3-methoxy-7-(3-{1-[(1-methylcyclohexyl)methyl]-1H-pyrazol-4-yl}pyridin-2-yl)cinnoline]
140	CCc1ccc(-c2cnn(CCC(C)C)c2)c(-c2ccc3cccnc3c2)n1 [Example 73, 7-{6-ethyl-3-[1-(3-methylbutyl)-1H-pyrazol-4-yl]pyridin-2-yl}quinoline]
191	COc1cc2ccc(-c3nc(C)ccc3-c3cnn(CC(C)(C)F)c3)cc2nn1 [Example 114, 7-{3-[1-(2-fluoro-2-methylpropyl)-1H-pyrazol-4-yl]-6-methylpyridin-2-yl}-3-methoxycinnoline]
69	COc1cc2ccc(-c3nc(C)ccc3-c3cnn(CC4(F)CCCCC4)c3)cc2nn1 [Example 86, 7-(3-{1-[(1-fluorocyclohexyl)methyl]-1H-pyrazol-4-yl}-6-methylpyridin-2-yl)-3-methoxycinnoline]
39	CC(C)CCn1cc(-c2ccc(Br)nc2-c2ccc3cccnc3c2)cn1 [Example 74, 7-{6-bromo-3-[1-(3-methylbutyl)-1H-pyrazol-4-yl]pyridin-2-yl}quinoline]
26	CC(C)C(F)(F)Cn1cc(-c2ccc(C#N)nc2-c2ccc3cccnc3c2)cn1 [Example 61, 5-[1-(2,2-difluoro-3-methylbutyl)-1H-pyrazol-4-yl]-6-quinolin-7-ylpyridine-2-carbonitrile]
72	COc1cc2ccc(-c3nc(C)ccc3-c3cnn(CC4CCC4)c3)cc2nn1 [Example 8, 7-{3-[1-(cyclobutylmethyl)-1H-pyrazol-4-yl]-6-methylpyridin-2-yl}-3-methoxycinnoline]
44	CC(C)(Cn1cc(-c2ccc(C#N)nc2-c2ccc3cccnc3c2)cn1)C(F)(F)F [Example 88, 6-quinolin-7-yl-5-[1-(3,3,3-trifluoro-2,2-dimethylpropyl)-1H-pyrazol-4-yl]pyridine-2-carbonitrile]
414	COc1ccnc(-c2ccc3cccnc3c2)c1-c1cnn(CCC(C)C)c1 [Example 51, 7-{4-methoxy-3-[1-(3-methylbutyl)-1H-pyrazol-4-yl]pyridin-2-yl}quinoline]
24	CC(C)CCn1cc(-c2ccc(C#N)nc2-c2ccc3cccnc3c2)cn1 [Example 66, 5-[1-(3-methylbutyl)-1H-pyrazol-4-yl]-6-quinolin-7-ylpyridine-2-carbonitrile]
158	c1cnc(-c2ccc3cccnc3c2)c(-c2cnn(CCC3CCC3)c2)c1 [Example 95, 7-{3-[1-(2-cyclobutylethyl)-1H-pyrazol-4-yl]pyridin-2-yl}quinoline]
20	COc1cc2ccc(-c3nc(C)ccc3-c3cnn(CC45CC(C4)C5)c3)cc2nn1 [Example 10, 7-{3-[1-(bicyclo[1.1.1]pent-1-ylmethyl)-1H-pyrazol-4-yl]-6-methylpyridin-2-yl}-3-methoxycinnoline]

Source: patent US11970479B2, “3-(1H-pyrazol-4-yl)pyridine allosteric modulators of the M4 muscarinic acetylcholine receptor” (Merck Sharp & Dohme LLC, priority 2018, dated 2024)
